In one test the test system is Magnaporthe grisea. The class given is in vivo. Particulars: rice (Nihonbare), flowable formulation 500 ppm foliage application; five days after the inoculation.
In the next test the test system is Plasmopara viticola. In words: Treating grape downy mildew, foliage application. The class given is in vivo. Conditions: grape (Berry-A), infected nursery plants, flowable formulation 500 ppm foliage application after inoculation (curative). The procedure:
Test Regarding Effects of Treating Grape Downy Mildew (Plasmopara viticola)
A plastic pot was filled with sandy soil, and grape (variety: Berry-A) was then disseminated. The grape plants were allowed to grow in a green house for 40 days. A water suspension of zoosporangium of Plasmopara viticola was inoculated to the aforementioned pot by spaying it. Thereafter, the grape plants were left at 23° C. at a high humidity for 1 day, and they were then air-dried, so as to obtain grape downy mildew-infected nursery plants. The aforementioned flowable formulation comprising compound 189 was set at a predetermine concentration (500 ppm) by diluting with water, and it was then subjected to foliage application such that it could be sufficiently attached to the leaves of the aforementioned nursery grape plants. After completion of the foliage application, the plants were subjected to air-drying, and they were then left at 23° C. in a green house for 5 days. Thereafter, the plants were further left at 23° C. at a high humidity for 1 day. Thereafter, the infected areas thereof were examined.

Some results are limits rather than exact numbers.

Take `O=C(NCc1ccc(OC(F)F)cc1)c1ccc2ncccc2c1` [Compound 56]: the “infected areas of treated plants relative to infected areas of untreated plants” value in the test with Magnaporthe grisea is on record as not above 30%.

Consider `Cc1ccc(CNC(=O)c2ccc3ncsc3c2)cc1` [Compound 189], for which the “infected areas of treated plants relative to infected areas of untreated plants” value in the test on Plasmopara viticola is not above 10%.

These data come from patent publication US20100041694A1, “AGRICULTURAL COMPOSITION FOR CONTROLLING OR PREVENTING PLANT DISEASES CAUSED BY PLANT PATHOGENIC MICROBES” (Sumitomo Chemical Company, Limited, priority 2007, published 2010).
